As a reminder, the melting point is the temperature of the solid-liquid transition.

System in one data set: not given
Assay: not given
Molecule `Cc1cccc(-c2nc(Nc3ccc(Cl)cc3)c3ccccc3n2)n1` [Compound A1, (4-Chloro-Phenyl)-[2-(6-Methyl-Pyridin-2-yl)-Quinazolin-4-yl]-Amine] came in with a melting point of 256.1 to 259.1 °C.
Same read-out and setting: to `Fc1cccc(-c2nc(Nc3ccc(Cl)cc3)c3ccccc3n2)n1` [Compound A2, (4-Chloro-Phenyl)-[2-(6-Fluoro-Pyridin-2-yl)-Quinazolin-4-yl]-Amine] belongs 118.3 to 121.4 °C; to `Clc1ccc(Nc2nc(-c3cccc(Br)n3)nc3ccccc23)cc1` [Compound A3, [2-(6-Bromo-Pyridin-2-yl)-Quinazolin-4-yl]-(4-Chloro-Phenyl)-Amine], 242.4 to 247.9 °C; to `COc1cccc(-c2nc(Nc3ccc(Cl)cc3)c3ccccc3n2)n1` [Compound A4, (4-Chloro-Phenyl)-[2-(6-Methoxy-Pyridin-2-yl)-Quinazolin-4-yl]-Amine], 156.8 to 160 °C.
Take `Oc1cccc(-c2nc(Nc3ccc(Cl)cc3)c3ccccc3n2)n1` [Compound A5, 6-[4-(4-Chloro-Phenylamino)-Quinazolin-2-yl]-Pyridin-2-ol]: the melting point is > 350 °C.
Take `O=C(c1ccccc1)c1cccnc1-c1nc(NC2CCCCC2)c2ccccc2n1` [Compound B1, [2-(4-Cyclohexylamino-Quinazolin-2-yl)-Pyridin-3-yl]-Phenyl-Methanone]: the melting point is 204 to 208 °C.
The molecule `Cc1cccc(-c2nc(NC3CCCCC3)c3ccccc3n2)n1` [Compound B2, Cyclohexyl-[2-(6-Methyl-Pyridin-2-yl)-Quinazolin-4-yl]-Amine] came in with a melting point of 253.1 to 254.9 °C.
Same read-out and setting: in the case of `Cc1cccc(-c2nc(NCc3ccc(Cl)cc3)c3ccccc3n2)n1` [Compound B3, (4-Chloro-Benzyl)-[2-(6-Methyl-Pyridin-2-yl)-Quinazolin-4-yl]-Amine] it was 209.9 to 212.2 °C.
On the same count and under the same terms, to `Clc1cccc(-c2nc(NC3CCCCC3)c3ccccc3n2)n1` [Compound B4, [2-(6-Chloro-Pyridin-2-yl)-Quinazolin-4-yl]-Cyclohexyl-Amine] belongs 218.4 to 220.9 °C; to `Clc1ccc(Nc2nc(-c3cccc(Cl)n3)nc3ccccc23)cc1` [Compound B5, (4-Chloro-Phenyl)-[2-(6-Chloro-Pyridin-2-yl)-Quinazolin-4-yl]-Amine], 211.9 to 213.2 °C; to `Clc1ccc(CNc2nc(-c3cccc(Cl)n3)nc3ccccc23)cc1` [Compound B6, (4-Chloro-Benzyl)-[2-(6-chloro-Pyridin-2-yl)-Quinazolin-4-yl]-Amine], 187.4 to 189.7 °C.
For `c1ccc2c(-c3nc(NC4CCCCC4)c4ccccc4n3)nccc2c1` [Compound B9, Cyclohexyl-(2-Isoquinolin-1-yl-Quinazolin-4-yl)-Amine], the melting point is 274.8 to 276.9 °C.
`Clc1ccc(Nc2nc(-c3nccc4ccccc34)nc3ccccc23)cc1` [Compound B10, (4-Chloro-Phenyl)-(2-Isoquinolin-1-yl-Quinazolin-4-yl)-Amine] gave a melting point of 279 to 280.5 °C.
Turning to `Clc1ccc(CNc2nc(-c3nccc4ccccc34)nc3ccccc23)cc1` [Compound B11, (4-Chloro-Benzyl)-(2-Isoquinolin-1-yl-quinazolin-4-yl)-Amine], the melting point fell in the range of 221.4 to 224.5 °C.

A further data set has as its target T1, hSK3 channels (Homo sapiens, UniProt Q9UGI6).
T1 construct: expressed in transfected cells; host or cells: HEK293
The experiment in a line: whole-cell patch-clamp recording of ionic current through SK channels (subtype 3) in HEK293 cells expressing hSK3. Type of data set: cell-based. The procedure:
The ionic current through small-conductance Ca^2+-activated K^+ channels (SK channels, subtype 3) is recorded using HEK293 tissue culture cells expressing hSK3 channels in a whole-cell configuration of the patch-clamp technique as described in e.g. WO 2006/100212.
For activators a SC100 value may be estimated. The SC100 value is defined as the Stimulating Concentration required for increasing the baseline current by 100%. The SC100 value determined for Compound A1 of the invention was well below 0.1 μM, which is an indication of its strong SK3 activating properties.
As to `Cc1cccc(-c2nc(Nc3ccc(Cl)cc3)c3ccccc3n2)n1` [Compound A1, (4-Chloro-Phenyl)-[2-(6-Methyl-Pyridin-2-yl)-Quinazolin-4-yl]-Amine], the “SC100 value (Stimulating Concentration required for increasing the baseline current by 100%)” value is recorded as “below 0.1 μM”.

These data come from patent US20090306102A1, “2-PYRIDIN-2-YL-QUINAZOLINE DERIVATIVES AS POTASSIUM CHANNEL MODULATING AGENTS FOR THE TREATMENT OF RESPIRATORY DISEASES” (priority 2005, published 2009).
